Assay type in all cases: functional
One assay has as its system CCRF-CEM. In words: Anticancer activity against human CCRF-CEM cells incubated for 48 hrs by SRB staining assay. In general terms: In SRB staining, fixed cells bind dye roughly in proportion to their protein.
Assay [1] deals with SR. The assay can be described thus: Anticancer activity against human SR cells incubated for 48 hrs by SRB staining assay relative to control.
A further assay deals with SF-268. In words: Anticancer activity against human SF-268 cells incubated for 48 hrs by SRB staining assay.
Another assay has as its system DU-145. The assay can be described thus: Anticancer activity against human DU-145 cells incubated for 48 hrs by SRB staining assay relative to control.
The test system of assay [2] is SR. The assay can be described thus: Anticancer activity against human SR cells incubated for 48 hrs by SRB staining assay.
Another assay relates to HCT-15. In words: Anticancer activity against human HCT-15 cells incubated for 48 hrs by SRB staining assay.
For another assay, the system named is CAKI-1. The assay can be described thus: Anticancer activity against human CAKI-1 cells incubated for 48 hrs by SRB staining assay.
In the next assay the test system is NCI-H322M. The assay can be described thus: Anticancer activity against human NCI-H322M cells incubated for 48 hrs by SRB staining assay.
The next assay deals with HL-60(TB). The assay can be described thus: Anticancer activity against human HL-60(TB) cells incubated for 48 hrs by SRB staining assay relative to control.
The test system of a further assay is UO-31. The assay can be described thus: Anticancer activity against human UO-31 cells incubated for 48 hrs by SRB staining assay.
The test system of another assay is OVCAR-3. In words: Anticancer activity against human OVCAR-3 cells incubated for 48 hrs by SRB staining assay.
In the next assay the test system is NCI-H460. In words: Anticancer activity against human NCI-H460 cells incubated for 48 hrs by SRB staining assay.
A further assay concerns MDA-MB-231. The assay can be described thus: Anticancer activity against human MDA-MB-231 cells incubated for 48 hrs by SRB staining assay.

With `O=C(Cc1csc2nc(-c3ccc(Cl)cc3)cn12)N/N=C/c1ccccc1O`, the GI50 (as a rule, the concentration giving 50% growth inhibition) was 741 nM in the assay on CCRF-CEM; 1260 nM with SF-268; 603 nM in the assay with SR [2]; 468 nM with HCT-15; 776 nM in the assay on CAKI-1; 1550 nM with NCI-H322M. Further, the GI50 in the assay with UO-31 is 501 nM; in the assay with OVCAR-3, 363 nM; in the assay on NCI-H460 it was 1380 nM; with MDA-MB-231 it was 1580 nM. The Activity in the assay with SR [1] was found to be 11.51%; with DU-145, 108.65%; in the assay on HL-60(TB), 103.5%.

These data come from ChEMBL document CHEMBL5096145, “Evaluation of imidazo[2,1-b]thiazole-based anticancer agents in one decade (2011-2020): Current status and future prospects” (Bioorg Med Chem, 2021).
